Laboratory results published in ChEMBL document CHEMBL5331057, “A decade of approved first-in-class small molecule orphan drugs: Achievements, challenges and perspectives” (Eur J Med Chem, 2022).
Values after ≈ are worked out from the molar mass of the structure shown.

Columns and labels:
Brain = assay: Neuroprotective activity in Wistar rat brain homogenate assessed as inhibition of lipid peroxidation incubated for 10 mins by fluorometric analysis; assay type: functional, tissue-based
GTPase KRas [1] = molecular target: T1, GTPase KRas (Homo sapiens, UniProt P01116); assay: Inhibition of K-Ras in human NCI-H460 cells; assay type: cell-based
T1 sequence (P01116 whole entry): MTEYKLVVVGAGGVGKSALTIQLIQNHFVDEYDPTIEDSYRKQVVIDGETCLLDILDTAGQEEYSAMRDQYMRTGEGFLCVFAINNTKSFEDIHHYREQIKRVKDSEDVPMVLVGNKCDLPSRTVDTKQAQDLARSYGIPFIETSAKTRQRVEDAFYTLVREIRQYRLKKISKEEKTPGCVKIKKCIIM

Aorta = assay: Relaxation of pre-contracted rabbit aorta; assay type: functional, tissue-based; conditions: Oryctolagus cuniculus
[2] = molecular target: Soluble guanylate cyclase (Homo sapiens) (UniProt Q02153+O75343+P33402+Q02108); assay: Stimulation of recombinant sGC (unknown origin) expressed in CHO cells assessed as formation of cGMP; assay type: cell-based; conditions: filed as activator
SW-620 = assay: cells; conditions: Homo sapiens
Melanocortin receptor 4 = Melanocortin receptor 4 (Rattus norvegicus, UniProt P70596); assay: Inhibition of rat MC4R
Melanocortin receptor 4, sequence (P70596 whole entry): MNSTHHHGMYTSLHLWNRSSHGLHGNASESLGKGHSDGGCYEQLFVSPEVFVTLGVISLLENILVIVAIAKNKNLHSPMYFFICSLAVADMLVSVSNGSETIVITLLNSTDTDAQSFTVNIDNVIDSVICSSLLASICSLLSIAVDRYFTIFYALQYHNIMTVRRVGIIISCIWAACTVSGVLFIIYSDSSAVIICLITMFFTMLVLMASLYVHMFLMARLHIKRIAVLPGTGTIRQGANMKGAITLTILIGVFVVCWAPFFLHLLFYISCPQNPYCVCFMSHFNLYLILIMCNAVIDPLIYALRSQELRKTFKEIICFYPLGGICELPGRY

[3] = molecular target: Cystic fibrosis transmembrane conductance regulator (Homo sapiens, UniProt P13569, F508DEL)
Cystic fibrosis transmembrane conductance regulator, sequence (P13569 as listed by the source): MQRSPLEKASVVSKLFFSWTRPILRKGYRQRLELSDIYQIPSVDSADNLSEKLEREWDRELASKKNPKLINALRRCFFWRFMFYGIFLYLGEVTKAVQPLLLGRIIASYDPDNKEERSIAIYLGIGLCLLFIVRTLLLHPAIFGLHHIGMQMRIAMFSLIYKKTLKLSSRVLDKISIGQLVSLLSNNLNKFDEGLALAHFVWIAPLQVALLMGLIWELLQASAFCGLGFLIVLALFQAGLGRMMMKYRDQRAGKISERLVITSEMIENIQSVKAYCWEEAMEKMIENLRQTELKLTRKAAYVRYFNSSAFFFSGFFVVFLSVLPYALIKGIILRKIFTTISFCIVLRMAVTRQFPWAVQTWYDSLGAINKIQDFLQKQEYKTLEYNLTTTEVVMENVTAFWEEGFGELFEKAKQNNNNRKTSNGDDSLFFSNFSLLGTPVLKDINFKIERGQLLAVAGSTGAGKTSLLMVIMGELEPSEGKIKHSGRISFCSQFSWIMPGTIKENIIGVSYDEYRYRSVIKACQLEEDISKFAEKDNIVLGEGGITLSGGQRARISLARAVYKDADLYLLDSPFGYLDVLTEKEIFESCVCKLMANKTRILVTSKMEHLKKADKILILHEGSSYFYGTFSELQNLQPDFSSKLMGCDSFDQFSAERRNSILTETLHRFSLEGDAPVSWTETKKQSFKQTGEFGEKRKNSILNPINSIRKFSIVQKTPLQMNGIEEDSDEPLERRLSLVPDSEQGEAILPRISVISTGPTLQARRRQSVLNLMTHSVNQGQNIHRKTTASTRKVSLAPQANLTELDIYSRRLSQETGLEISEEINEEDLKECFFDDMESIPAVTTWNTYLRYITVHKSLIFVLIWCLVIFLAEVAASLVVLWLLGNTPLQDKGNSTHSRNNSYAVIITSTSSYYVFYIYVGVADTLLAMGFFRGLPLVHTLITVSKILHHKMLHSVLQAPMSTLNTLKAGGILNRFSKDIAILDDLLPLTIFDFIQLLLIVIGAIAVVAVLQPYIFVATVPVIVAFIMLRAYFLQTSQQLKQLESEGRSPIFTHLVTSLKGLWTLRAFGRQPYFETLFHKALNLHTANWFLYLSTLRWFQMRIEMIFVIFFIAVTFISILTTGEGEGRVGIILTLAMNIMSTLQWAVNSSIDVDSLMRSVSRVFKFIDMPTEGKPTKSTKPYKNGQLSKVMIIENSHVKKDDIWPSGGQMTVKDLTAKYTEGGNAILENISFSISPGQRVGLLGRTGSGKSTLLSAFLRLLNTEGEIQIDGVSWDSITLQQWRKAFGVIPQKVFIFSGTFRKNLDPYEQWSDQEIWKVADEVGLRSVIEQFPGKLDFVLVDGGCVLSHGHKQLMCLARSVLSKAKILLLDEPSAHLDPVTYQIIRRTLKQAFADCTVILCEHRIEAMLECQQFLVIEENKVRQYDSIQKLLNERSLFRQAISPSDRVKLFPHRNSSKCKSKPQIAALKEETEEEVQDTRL

[4] = Cytotoxicity against human HBE cells assessed as inhibition of cell growth; assay type: toxicity, cell-based
[5] = molecular target: Hepatocyte growth factor receptor (Homo sapiens, UniProt P08581); assay: Inhibition of c-Met (unknown origin)
[6] = test system: Mycobacterium tuberculosis; assay: microbe, parasite or virus in culture
[7] = test system: Mycobacterium tuberculosis; assay: microbe, parasite or virus in culture; remark: listed apart in the source
[8] = Inhibition of wild type FTase (unknown origin); set-up: species or system Homo sapiens
GTPase HRas = GTPase HRas (Homo sapiens, UniProt P01112); assay: Inhibition of H-Ras (unknown origin)
GTPase HRas, sequence (P01112 whole entry): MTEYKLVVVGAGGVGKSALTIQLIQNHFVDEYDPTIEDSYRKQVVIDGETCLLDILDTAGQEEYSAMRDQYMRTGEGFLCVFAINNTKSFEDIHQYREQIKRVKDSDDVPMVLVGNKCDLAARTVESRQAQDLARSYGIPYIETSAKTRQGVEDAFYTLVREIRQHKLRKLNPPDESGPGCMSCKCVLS

GTPase KRas [9] = molecular target: T1, GTPase KRas; assay: Inhibition of K-Ras (unknown origin)
RS4-11 = assay: Antiproliferative activity against human RS4-11 cells assessed as […]; assay type: functional, cell-based
Human betaherpesvirus 5 = assay: Antiviral activity against HCMV infected in human NHDF cells assessed as reduction in virus plaque formation; assay type: functional, organism-based; conditions: Human betaherpesvirus 5, NHDF
K562 = assay: Antiproliferative activity against human K562 cells assessed as inhibition of cell growth; assay type: functional, cell-based
RBL-2H3 = assay: Antiproliferative activity against rat RBL-2H3 cells assessed as […]; assay type: functional, cell-based
Methionine synthase = Methionine synthase (Homo sapiens, UniProt Q99707); assay: Inhibition of MTR (unknown origin)
Methionine synthase, sequence (Q99707 whole entry): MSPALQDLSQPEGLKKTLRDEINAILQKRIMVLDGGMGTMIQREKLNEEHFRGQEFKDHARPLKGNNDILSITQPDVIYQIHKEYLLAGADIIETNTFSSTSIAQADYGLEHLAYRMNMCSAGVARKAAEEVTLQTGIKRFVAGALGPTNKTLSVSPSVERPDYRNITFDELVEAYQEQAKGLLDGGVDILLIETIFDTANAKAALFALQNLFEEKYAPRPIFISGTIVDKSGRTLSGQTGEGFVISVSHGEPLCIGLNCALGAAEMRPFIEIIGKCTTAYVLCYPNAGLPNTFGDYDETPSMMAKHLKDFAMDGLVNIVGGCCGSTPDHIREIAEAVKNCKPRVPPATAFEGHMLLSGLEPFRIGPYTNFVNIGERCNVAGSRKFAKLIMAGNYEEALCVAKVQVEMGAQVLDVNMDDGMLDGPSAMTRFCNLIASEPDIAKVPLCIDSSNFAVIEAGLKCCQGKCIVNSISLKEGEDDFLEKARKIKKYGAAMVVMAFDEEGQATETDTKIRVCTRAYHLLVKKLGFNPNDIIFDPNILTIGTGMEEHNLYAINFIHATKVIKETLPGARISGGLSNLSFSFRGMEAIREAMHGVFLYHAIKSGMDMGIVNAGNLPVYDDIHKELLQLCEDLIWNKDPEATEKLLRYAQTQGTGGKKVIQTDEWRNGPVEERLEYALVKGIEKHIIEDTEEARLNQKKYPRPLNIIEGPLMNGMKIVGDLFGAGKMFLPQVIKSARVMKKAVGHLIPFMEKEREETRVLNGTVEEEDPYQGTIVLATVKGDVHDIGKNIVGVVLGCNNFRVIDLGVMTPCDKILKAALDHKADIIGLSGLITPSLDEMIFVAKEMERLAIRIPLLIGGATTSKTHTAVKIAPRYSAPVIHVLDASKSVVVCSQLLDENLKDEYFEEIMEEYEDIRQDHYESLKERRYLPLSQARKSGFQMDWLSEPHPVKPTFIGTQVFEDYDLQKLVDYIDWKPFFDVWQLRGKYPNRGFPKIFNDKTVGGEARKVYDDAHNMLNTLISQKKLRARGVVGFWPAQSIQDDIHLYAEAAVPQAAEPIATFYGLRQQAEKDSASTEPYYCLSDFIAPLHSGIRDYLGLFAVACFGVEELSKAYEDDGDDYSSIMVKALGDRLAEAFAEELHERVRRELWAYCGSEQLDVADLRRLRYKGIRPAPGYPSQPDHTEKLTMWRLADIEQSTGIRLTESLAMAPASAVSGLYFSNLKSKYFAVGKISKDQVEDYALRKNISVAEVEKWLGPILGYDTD

HepG2 = assay: cells; conditions: Homo sapiens, HepG2, read-out: ED50
Malme-3M = assay: Antiproliferative activity against human Malme-3M cells assessed as inhibition of cell growth; assay type: functional, cell-based
[10] = molecular target: Isocitrate dehydrogenase [NADP], mitochondrial (Homo sapiens, UniProt P48735); assay: Inhibition of IDH2 (unknown origin)
Isocitrate dehydrogenase [NADP], mitochondrial, sequence (P48735 whole entry): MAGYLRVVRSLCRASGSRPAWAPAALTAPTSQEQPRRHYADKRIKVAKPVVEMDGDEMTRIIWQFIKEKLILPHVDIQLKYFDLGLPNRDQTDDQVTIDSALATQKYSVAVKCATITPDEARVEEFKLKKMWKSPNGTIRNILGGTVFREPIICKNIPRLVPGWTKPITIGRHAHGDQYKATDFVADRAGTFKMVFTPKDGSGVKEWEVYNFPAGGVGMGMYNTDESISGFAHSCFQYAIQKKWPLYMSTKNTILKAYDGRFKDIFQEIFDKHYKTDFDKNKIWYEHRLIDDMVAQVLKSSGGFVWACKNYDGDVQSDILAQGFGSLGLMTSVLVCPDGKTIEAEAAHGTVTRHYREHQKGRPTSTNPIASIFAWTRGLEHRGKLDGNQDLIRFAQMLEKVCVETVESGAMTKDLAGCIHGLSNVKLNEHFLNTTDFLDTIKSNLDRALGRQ

HCT-116 = assay: Antiproliferative activity against human HCT-116 cells assessed as inhibition of cell growth; assay type: functional, cell-based
Exportin-1 [11] = molecular target: T2, Exportin-1 (Homo sapiens, UniProt O14980); assay: Inhibition of XPO1 in human MOLT-16 cells; assay type: cell-based
T2 sequence (O14980 whole entry): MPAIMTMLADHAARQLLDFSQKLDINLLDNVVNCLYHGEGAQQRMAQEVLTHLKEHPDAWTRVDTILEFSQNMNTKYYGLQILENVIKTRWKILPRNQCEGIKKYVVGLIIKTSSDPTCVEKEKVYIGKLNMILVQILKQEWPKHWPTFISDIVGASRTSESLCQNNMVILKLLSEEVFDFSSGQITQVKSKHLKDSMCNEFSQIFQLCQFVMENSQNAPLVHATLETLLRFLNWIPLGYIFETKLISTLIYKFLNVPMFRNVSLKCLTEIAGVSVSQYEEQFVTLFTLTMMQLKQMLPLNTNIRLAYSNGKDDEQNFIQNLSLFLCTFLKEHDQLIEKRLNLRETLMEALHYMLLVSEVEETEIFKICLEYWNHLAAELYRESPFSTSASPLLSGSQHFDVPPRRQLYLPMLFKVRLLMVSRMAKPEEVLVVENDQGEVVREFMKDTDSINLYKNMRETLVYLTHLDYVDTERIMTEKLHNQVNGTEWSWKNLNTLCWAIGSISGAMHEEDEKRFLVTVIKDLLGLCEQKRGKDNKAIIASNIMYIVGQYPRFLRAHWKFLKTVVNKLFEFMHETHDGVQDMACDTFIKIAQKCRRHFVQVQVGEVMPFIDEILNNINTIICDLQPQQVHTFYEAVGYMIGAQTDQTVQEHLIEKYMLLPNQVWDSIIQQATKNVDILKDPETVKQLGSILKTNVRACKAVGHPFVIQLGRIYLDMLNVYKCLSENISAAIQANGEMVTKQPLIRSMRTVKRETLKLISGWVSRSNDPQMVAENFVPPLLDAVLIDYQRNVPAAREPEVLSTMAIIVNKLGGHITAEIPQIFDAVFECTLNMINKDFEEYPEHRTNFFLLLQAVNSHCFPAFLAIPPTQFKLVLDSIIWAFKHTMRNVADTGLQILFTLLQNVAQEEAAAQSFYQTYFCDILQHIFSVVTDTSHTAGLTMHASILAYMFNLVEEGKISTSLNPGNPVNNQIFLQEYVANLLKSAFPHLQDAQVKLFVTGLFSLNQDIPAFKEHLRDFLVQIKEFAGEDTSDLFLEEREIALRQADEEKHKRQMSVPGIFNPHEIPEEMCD

Exportin-1 [12] = molecular target: T2, Exportin-1; assay: Inhibition of XPO1 in human HPBALL cells; assay type: cell-based
cells = conditions: Homo sapiens, HAC15, 72 h

For `CC1=NN(c2ccccc2)C(=O)C1` [EDARAVONE], the IC50 (Brain) was 18200 nM.

With `NC(=O)N1CCC(CC(=O)N2CCC([C@H]3c4ncc(Br)cc4CCc4cc(Cl)cc(Br)c43)CC2)CC1` [LONAFARNIB] the IC50 (GTPase KRas [1]) was 40 nM.

Compound `COC(=O)N(C)c1c(N)nc(-c2nn(Cc3ccccc3F)c3ncccc23)nc1N` [RIOCIGUAT] has an IC50 (Aorta) of 120 nM and an MEC [2] of 0.03 µM.

For `O=C(c1cc(Cc2n[nH]c(=O)c3ccccc23)ccc1F)N1CCN(C(=O)C2CC2)CC1` [OLAPARIB], the IC50 (SW-620) was 6 nM.

`CC(=O)N[C@@H](CCCNC(=N)N)C(=O)N[C@H]1CSSC[C@@H](C(N)=O)NC(=O)[C@H](Cc2c[nH]c3ccccc23)NC(=O)[C@H](CCCNC(=N)N)NC(=O)[C@@H](Cc2ccccc2)NC(=O)[C@H](Cc2c[nH]cn2)NC(=O)[C@@H](C)NC1=O` [SETMELANOTIDE] gave an EC50 (Melanocortin receptor 4) of 0.28 nM.

Compound `CC(C)(C)c1cc(C(C)(C)C)c(NC(=O)c2c[nH]c3ccccc3c2=O)cc1O` [IVACAFTOR] has an EC50 [3] of 25 nM and an EC50 [4] of 236 nM.

Compound `Cc1[nH]c(/C=C2\C(=O)Nc3ccc(S(=O)(=O)C(C)c4c(Cl)cccc4Cl)cc32)c(C)c1C(=O)N1CCC[C@@H]1CN1CCCC1` (some centres undefined) has an IC50 [5] of 9 nM.

`COc1nc2ccc(Br)cc2cc1[C@@H](c1ccccc1)[C@@](O)(CCN(C)C)c1cccc2ccccc12` [BEDAQUILINE] showed an MIC [6] of 0.03 µg/mL (≈ 0.054 µM) and an MIC [7] of 0.03 µg/mL (≈ 0.054 µM).

For `CO[C@H]1/C=C/O[C@@]2(C)Oc3c(C)c(O)c4c(O)c(c(/C=N/N5CCN(C)CC5)c(O)c4c3C2=O)NC(=O)/C(C)=C\C=C\[C@H](C)[C@H](O)[C@@H](C)[C@@H](O)[C@@H](C)[C@H](OC(C)=O)[C@@H]1C` [RIFAMPIN], the MIC [6] was 0.5 µg/mL (≈ 0.608 µM) and the MIC [7] was 0.5 µg/mL (≈ 0.608 µM).

`O=C(Cc1ccncc1)N1CCN([C@H]2c3ccc(Cl)cc3CCc3cccnc32)CC1` showed an IC50 [8] of 490 nM, an IC50 (GTPase HRas) of 1.9 nM and an IC50 (GTPase KRas [9]) of 5.2 nM.

In the case of `CC1(C)CCC(c2ccc(Cl)cc2)=C(CN2CCN(c3ccc(C(=O)NS(=O)(=O)c4ccc(NCC5CCOCC5)c([N+](=O)[O-])c4)c(Oc4cnc5[nH]ccc5c4)c3)CC2)C1`, the EC50 (RS4-11) is reported as 8 nM.

`NNC(=O)c1ccncc1` [ISONIAZID] showed an MIC [6] of 0.12 µg/mL (≈ 0.875 µM) and an MIC [7] of 0.12 µg/mL (≈ 0.875 µM).

In the case of `COc1cccc(N2CCN(C3=Nc4c(F)cccc4[C@H](CC(=O)O)N3c3cc(C(F)(F)F)ccc3OC)CC2)c1` [LETERMOVIR], the EC50 (Human betaherpesvirus 5) is reported as 4.5 nM and the EC90 (Human betaherpesvirus 5) is reported as 6.1 nM.

`COC(=O)C[C@](O)(CCCC(C)(C)O)C(=O)O[C@@H]1C(OC)=C[C@]23CCCN2CCc2cc4c(cc2[C@H]13)OCO4` [OMACETAXINE MEPESUCCINATE] showed an IC50 (K562) of 21 nM.

With `CCOC(=O)[C@@H](N)Cc1ccc(-c2cc(O[C@H](c3ccc(Cl)cc3-n3ccc(C)n3)C(F)(F)F)nc(N)n2)cc1` [TELOTRISTAT ETIPRATE] the IC50 (RBL-2H3) was 400 nM.

For `O=C(c1c[nH]c2ccccc2c1=O)N(Cc1ccccc1)Cc1ccccc1`, the EC50 [3] was 2.1 nM.

Compound `O=C(NC1CCN(CCCCC2(C(=O)NCC(F)(F)F)c3ccccc3-c3ccccc32)CC1)c1ccccc1-c1ccc(C(F)(F)F)cc1` [LOMITAPIDE] has an IC50 (Methionine synthase) of 0.5 nM and an EC50 (HepG2) of 0.8 nM.

For `Cn1cnc2c(F)c(Nc3ccc(Br)cc3Cl)c(C(=O)NOCCO)cc21` [SELUMETINIB], the IC50 (Malme-3M) was 59 nM.

With `O=C1c2ccccc2CN1C1CCN(CCC(c2ccccc2)c2ccccc2)CC1` the IC50 (Methionine synthase) was 2.2 nM and the EC50 (HepG2) was 2.2 nM.

In the case of `CC(C)(C)Nc1nc(Nc2ccccc2)nc(-c2ccccc2)n1`, the IC50 [10] is reported as 100 nM and the IC50 (HCT-116) is reported as 530 nM.

`COc1cc(-c2ncn(/C=C\C(=O)OC(C)C)n2)cc(C(F)(F)F)c1` gave an IC50 (Exportin-1 [11]) of 112 nM and an IC50 (Exportin-1 [12]) of 16 nM.

With `N#Cc1ccc([C@H]2CCc3cncn32)c(F)c1` [OSILODROSTAT] the IC50 (cells) was 35 nM.
